Measured values taken from the Deep4Chem optical property database.
Values belong to the molecule of their own block, whether it stands above or below them.

Assay: solvent given as SMILES
[1] = in O=P(c1ccccc1)(c1ccccc1)c1ccc2oc3ccc(P(=O)(c4ccccc4)c4ccccc4)cc3c2c1

SMILES: F[B-]1(F)n2c(/C=C/c3ccc(C(=C(c4ccccc4)c4ccccc4)c4ccccc4)cc3)ccc2C(c2ccccc2)=C2C=CC(/C=C/c3ccc(C(=C(c4ccccc4)c4ccccc4)c4ccccc4)cc3)=[N+]21
fluorescence lifetime (in C1CCOC1): 3.98 ns

SMILES: CCCCC(CC)CN1C(=O)c2cc(Oc3ccc(OC)cc3)c3c4c(Oc5ccc(C(C)(C)C)cc5)cc5c6c(cc(Oc7ccc(C(C)(C)C)cc7)c(c7c(Oc8ccc(OC)cc8)cc(c2c37)C1=O)c64)C(=O)N(c1c(C(C)C)cccc1C(C)C)C5=O (configuration not stated)
fluorescence lifetime (in Cc1ccccc1): 5.32 ns

SMILES: O=C1c2cc(F)ccc2-c2cnccc21
fluorescence lifetime (in CC#N): 5.6 ns
fluorescence lifetime (in CCOC(C)=O): 6.6 ns
fluorescence lifetime (in Cc1ccccc1): 4.5 ns
fluorescence lifetime (in ClCCl): 6.3 ns

SMILES: c1ccc(C2=C3c4ccccc4C4=[N+]3[B-]3(Oc5ccccc54)Oc4ccccc4-c4c5ccccc5c2n43)cc1 (configuration not stated)
fluorescence lifetime (in ClCCl): 7 ns

SMILES: Cc1ccc2c(c1)C1(c3ccccc3-c3ccccc31)c1cc(C)ccc1N2c1ccc(-c2nc(-c3ccccc3)cc(-c3ccccc3)n2)cc1
fluorescence lifetime [1]: 12 ns

SMILES: CC1(C)C(/C=C/C2=C(c3ccc(C(=O)O)cc3)C(=C/C=C3/N(CCCCS(=O)(=O)[O-])c4ccccc4C3(C)C)/CC2)=[N+](CCCCS(=O)(=O)[O-])c2ccccc21
fluorescence lifetime (in CC(C)=O): 1.13 ns
fluorescence lifetime (in CCO): 0.87 ns
fluorescence lifetime (in CO): 0.83 ns
fluorescence lifetime (in CS(C)=O): 1.11 ns
fluorescence lifetime (in ClC(Cl)Cl): 1.25 ns
fluorescence lifetime (in ClCCl): 1.17 ns
fluorescence lifetime (in O): 0.36 ns

SMILES: CNc1ccc2c(c1)-c1ccccc1C2=O
fluorescence lifetime (in CC#N): 4.3 ns
fluorescence lifetime (in c1ccccc1): 9.4 ns

SMILES: CCC1(CC)c2cc(B(c3c(C)cc(C)cc3C)c3c(C)cc(C)cc3C)ccc2-c2c1c1c(c3c2C(CC)(CC)c2cc(B(c4c(C)cc(C)cc4C)c4c(C)cc(C)cc4C)ccc2-3)C(CC)(CC)c2cc(B(c3c(C)cc(C)cc3C)c3c(C)cc(C)cc3C)ccc2-1
fluorescence lifetime (in C1CCOC1): 4.4 ns

SMILES: CCN(CC)c1ccc2c(C(F)(F)F)cc(=O)oc2c1
fluorescence lifetime (in C1CCCCC1): 4.1 ns
fluorescence lifetime (in CC#N): 0.6 ns
fluorescence lifetime (in CCO): 0.85 ns
fluorescence lifetime (in CCOC(C)=O): 4.6 ns
fluorescence lifetime (in OCC(O)CO): 2.7 ns

SMILES: COCCOCCOCCOCC(COCCOCCOCCOC)Oc1cc(/C=C/c2ccc(/C=C(\C#N)c3ccncc3)cc2)c(OC(COCCOCCOCCOC)COCCOCCOCCOC)cc1/C=C/c1ccc(/C=C(\C#N)c2ccncc2)cc1
fluorescence lifetime (in ClCCl): 1.7 ns

SMILES: c1ccc(-c2nc(-c3ccccc3)nc(-c3cc(-n4c5ccccc5c5ccccc54)c(-n4c5ccccc5c5ccccc54)c(-n4c5ccccc5c5ccccc54)c3)n2)cc1
fluorescence lifetime [1]: 13.1 ns

SMILES: c1ccc(-n2c(-c3ccc(N(c4ccc(-c5ccc(N(c6ccc(-c7nc8c9ccccc9c9ccccc9c8n7-c7ccccc7)cc6)c6ccc(-c7nc8c9ccccc9c9ccccc9c8n7-c7ccccc7)cc6)cc5)cc4)c4ccc(-c5nc6c7ccccc7c7ccccc7c6n5-c5ccccc5)cc4)cc3)nc3c4ccccc4c4ccccc4c32)cc1
fluorescence lifetime (in ClCCl): 1.68 ns

SMILES: CC(C)(C)c1ccc(-c2nc3c4ccc(-c5cccc6ccccc56)cc4c4cc(-c5cccc6ccccc56)ccc4c3n2-c2ccc(C(C)(C)C)cc2)cc1
fluorescence lifetime (in ClCCl): 7.4 ns

SMILES: C1C[C@H]2CC[C@@H]1N=N2
fluorescence lifetime (in CC#N): 434 ns

SMILES: O=[N+]([O-])c1ccc(-c2nc3c(c4c2-c2ccccc2CC4)-c2ccccc2CC3)cc1
fluorescence lifetime (in CC#N): 2.05 ns
fluorescence lifetime (in CS(C)=O): 1.09 ns
fluorescence lifetime (in ClCCl): 1.13 ns

SMILES: CCc1ccc(/C=C/c2ccc(-c3nnc(-c4ccc(-c5cc6ccccc6s5)cc4)o3)cc2)cc1
fluorescence lifetime (in Cc1ccccc1): 0.56 ns
fluorescence lifetime (in ClC(Cl)Cl): 0.61 ns

SMILES: CC1(C)c2ccccc2N(c2cc[n+]3c(c2)-c2ccccc2O[B-]3(F)F)c2ccccc21
fluorescence lifetime (in O=P(c1ccccc1)(c1ccccc1)c1ccccc1Oc1ccccc1P(=O)(c1ccccc1)c1ccccc1): 6.2 ns

SMILES: c1ccc(-c2cc3cc4cccc5c(-c6ccccc6)cc6cc7cccc2c7c3c6c45)cc1
fluorescence lifetime (in ClCCl): 4.21 ns

SMILES: Cc1cc(C)c(C2=C3C=CC=[N+]3[B-]3(F)Oc4cc(O)cc5c6ccc(C)cc6c6cc2n3c6c45)c(C)c1 (configuration not stated)
fluorescence lifetime (in ClC(Cl)Cl): 4 ns

SMILES: COc1cc2c(cc1-c1ccc(C(F)(F)F)cc1)Cc1c3c(c4c(c1-2)-c1cc(OC)c(-c2ccc(C(F)(F)F)cc2)cc1C4)C(=O)N(CCC(C)C)C3=O
fluorescence lifetime (in C1CCOC1): 2.43 ns

SMILES: Cc1cc(=O)c2ccc(N)cc2o1
fluorescence lifetime (in C1CCOC1): 3.22 ns
fluorescence lifetime (in C1COCCO1): 0.48 ns
fluorescence lifetime (in CC#N): 0.59 ns
fluorescence lifetime (in CC(C)O): 4.56 ns
fluorescence lifetime (in CCCCO): 4.01 ns
fluorescence lifetime (in CCCO): 4.68 ns
fluorescence lifetime (in CCOC(C)=O): 0.94 ns
fluorescence lifetime (in CN(C)C=O): 3.37 ns
fluorescence lifetime (in CO): 4.45 ns
fluorescence lifetime (in CS(C)=O): 0.8 ns
fluorescence lifetime (in ClC(Cl)Cl): 3.67 ns
fluorescence lifetime (in O): 5.52 ns

SMILES: CCCC(=O)c1c2c(c(C(=O)CCC)c3c1OC(CC(=O)OC)(C(=O)OC)O3)OCO2
fluorescence lifetime (in CC#N): 22.5 ns
fluorescence lifetime (in CCCCCC): 18.5 ns
fluorescence lifetime (in CCO): 17.7 ns
fluorescence lifetime (in CO): 11.9 ns
fluorescence lifetime (in ClCCl): 25.1 ns

SMILES: CCN(CC)/C(C)=N\c1ccc2c3c(cccc13)C(=O)c1ccccc1-2
fluorescence lifetime (in ClC(Cl)Cl): 8.07 ns

SMILES: CC1(C)c2ccccc2N(c2ccc(-c3cc(-c4ccccc4)nc(-c4ccccc4)n3)cc2)c2ccccc21
fluorescence lifetime (in Cc1ccccc1): 4.23 ns
fluorescence lifetime (in ClCCl): 25 ns

SMILES: Nc1cccc[nH+]1
fluorescence lifetime (in O): 11.2 ns

The next lines start with the values.

fluorescence lifetime (in C1CCCCC1): 2.67 ns
fluorescence lifetime (in CCOC(C)=O): 0.92 ns
SMILES: CC1=[N+]2C(=C(c3cccs3)c3ccc(C)n3[B-]2(F)F)C=C1c1cc2n(c1)[B-](F)(F)[N+]1=CC=CC1=C2c1c(C)cc(C)cc1C

fluorescence lifetime (in C1COCCO1): 12.4 ns
fluorescence lifetime (in CN(C)C=O): 8.33 ns
fluorescence lifetime (in CS(C)=O): 0.07 ns
SMILES: CC(C)(C)NS(=O)(=O)c1ccc2c(c1)C(=O)/C(=C1\Sc3ccc(S(=O)(=O)NC(C)(C)C)cc3C1=O)S2

fluorescence lifetime (in C1CCCCC1): 62 ns
SMILES: CCCCCCCC[Si](C)(C)c1cccc2ccccc12

fluorescence lifetime (in c1cc(-c2cccc(-n3c4ccccc4c4ccccc43)c2)cc(-n2c3ccccc3c3ccccc32)c1): 68 ns
SMILES: CC1(C)c2ccccc2N(c2ccc3c(c2)c2ccccc2c2nc4ccccc4nc32)c2ccccc21

fluorescence lifetime (in CC#N): 0.0004 ns
SMILES: O=c1[nH]cc(F)c(=O)[nH]1

fluorescence lifetime (in ClCCl): 7.7 ns
SMILES: COc1ccc(C#Cc2c3cc4cc(C)sc4cc3c(C#Cc3ccc(OC)cc3)c3cc4cc(C)sc4cc23)cc1

fluorescence lifetime (in ClCCl): 1 ns
SMILES: O=Cc1ccc2c(c1)c1ccccc1n2-c1ccc(-c2ccc(-n3c4ccccc4c4cc(C=O)ccc43)cc2)cc1

fluorescence lifetime (in CC#N): 5.5 ns
fluorescence lifetime (in CCCCCC): 4 ns
SMILES: Cc1ccc(-n2cccc2)cc1

fluorescence lifetime (in C1CCCCC1): 18 ns
SMILES: Cc1cccc(-c2cccc(C)c2)c1

fluorescence lifetime (in C1CCOC1): 19 ns
fluorescence lifetime (in CC#N): 21 ns
fluorescence lifetime (in CCO): 14 ns
fluorescence lifetime (in CN(C)C=O): 15 ns
fluorescence lifetime (in CO): 11 ns
fluorescence lifetime (in CS(C)=O): 5.4 ns
SMILES: CSc1sc(C(N)=O)c2nnn(C)c(=O)c12

fluorescence lifetime (in CC#N): 3.95 ns
fluorescence lifetime (in CS(C)=O): 3.06 ns
fluorescence lifetime (in ClC(Cl)Cl): 4.24 ns
SMILES: C#CCn1c2ccccc2c2cc(/C=C/c3c(Cl)c(C)c4n3[B-](F)(F)[N+]3=C(C)C(Cl)=C(C)C3=C4c3ccc(I)cc3)ccc21

fluorescence lifetime (in ClCCl): 0.27 ns
SMILES: O=[N+]([O-])c1ccc(C#Cc2ccc3ccc(C#Cc4ccc([N+](=O)[O-])cc4)cc3c2)cc1

fluorescence lifetime (in CC#N): 5.4 ns
SMILES: CC(=O)OC[C@H]1O[C@@H](OCC#Cc2ccc(C3=C4C(C)=CC(/C=C/c5ccc([N+](C)(C)C)cc5)=[N+]4[B-](F)(F)n4c(/C=C/c5ccc([N+](C)(C)C)cc5)cc(C)c43)cc2)[C@H](OC(C)=O)C(OC(C)=O)[C@@H]1OC(C)=O (some centres not stated)

fluorescence lifetime (in CC#N): 0.07 ns
SMILES: C(=C\c1ccccc1)/c1ccccc1

fluorescence lifetime (in ClCCCl): 0.18 ns
SMILES: N#Cc1ccc2nc3[nH]c(=O)[nH]c(=O)c3nc2c1

fluorescence lifetime (in CC#N): 166 ns
SMILES: COC(=O)[C@]12N=N[C@](C(=O)OC)(C3C4C5C4C5C31)C1C3C4C3C4C12 (some centres not stated)

fluorescence lifetime (in ClC(Cl)Cl): 3.19 ns
SMILES: F[B-]1(F)OC(c2cc3c4c(c2)CCCN4CCC3)=Cc2cccc[n+]21

fluorescence lifetime (in ClCCl): 2.5 ns
SMILES: COc1ccc2cc(C#N)c(=N)oc2c1
